Assay results from US20150105252A1, “SUBSTITUTED PYRAZOLES AS HERBICIDES” (E I DU PONT DE NEMOURS AND COMPANY, priority 2013, published 2015).

Key:
nutsedge, yellow [1] = experiment: Test C preemergence; format: in vivo, Cyperus esculentus; conditions: for Nutsedge, Yellow plant response rating / Plant response rating, Nutsedge, Yellow: preemergence; for Plant response rating, Nutsedge, Yellow: 62 g ai/ha, scale 0 to 100, 0 = no effect, 100 = complete control
In short: (§1)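 Seeds were sown in a loam soil–sand blend and sprayed preemergence with compounds formulated in a non-phytotoxic solvent mixture containing surfactant. Postemergence plants, grown in peat/vermiculite medium to 2–18 cm (1- to 4-leaf stage), received the same formulation. After 13 to 15 days in a greenhouse, injury was rated visually against controls (0 = no effect, 100 = complete control).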

kochia = experiment: Test C postemergence; format: in vivo, Kochia scoparia; conditions: for Kochia plant response rating: scale 0 to 100
In short: as §1

ducksalad = experiment: Test B flood; format: in vivo, Heteranthera limosa; conditions: 250 g ai/ha, visual rating on 0 to 100 scale (0 no effect, 100 complete control), 13 to 15 days
In short: (§2)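 Plants were grown to the 2-leaf stage, then pots were flooded to 3 cm above the soil and compounds were applied directly into the paddy water. Water depth was held for the whole test; after 13 to 15 days in a greenhouse, injury was visually rated against untreated controls (0 = no effect, 100 = complete control).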

johnsongrass = experiment: Test C postemergence; format: in vivo, Sorghum halepense; conditions: for Johnsongrass plant response rating: scale 0 to 100
In short: as §1

velvetleaf = experiment: Test C preemergence; format: in vivo, Abutilon theophrasti
In short: as §1

rice = experiment: Test B flood; format: in vivo, Oryza sativa; conditions: 250 g ai/ha, visual rating on 0 to 100 scale (0 no effect, 100 complete control), 13 to 15 days
In short: as §2

waterhemp = experiment: Test C preemergence; format: in vivo, Amaranthus rudis
In short: as §1

nutsedge, yellow [2] = experiment: Test C postemergence; format: in vivo, Cyperus esculentus; conditions: for Nutsedge, Yellow plant response rating: scale 0 to 100
In short: as §1

crabgrass, large = experiment: Test A postemergence; format: in vivo, Digitaria sanguinalis
In short: (§3)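 Greenhouse test in loam soil/sand blend; compounds formulated in non-phytotoxic solvent with surfactant, applied as preemergence directed soil spray or postemergence to plants 2–10 cm tall at one- to two-leaf stage. Injury rated visually versus untreated controls after approximately 10 days on a 0 (no effect) to 100 (complete control) scale.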

barnyardgrass = experiment: Test A preemergence; format: in vivo, Echinochloa crus-galli; conditions: 0 to 100 scale
In short: as §3

soybean = experiment: Test C postemergence; format: in vivo, Glycine max; conditions: for Soybean plant response rating / Plant response rating, Soybean: postemergence; for Soybean plant response rating: 62 g ai/ha, scale 0 to 100
In short: as §1

[3] = 31 g ai/ha, scale 0 to 100 (0 no effect, 100 complete control), 13 to 15 days
[4] = 125 g ai/ha, scale 0 to 100, 0 is no effect, 100 is complete control
[5] = postemergence, 125 g ai/ha, scale 0 to 100, 0 no effect, 100 complete control
[6] = Preemergence, 16 g ai/ha, scale 0 to 100
[7] = preemergence, 31 g ai/ha, scale 0 to 100 (0 no effect, 100 complete control), 13 to 15 days
[8] = preemergence, 62 g ai/ha, 13 to 15 days, scale 0 to 100, 0 = no effect, 100 = complete control
[9] = preemergence, 125 g ai/ha, scale 0 to 100, 0 is no effect, 100 is complete control
[10] = Postemergence, 500 g ai/ha, visual rating after approx. 10 days, 0 to 100 scale (0 no effect, 100 complete control)
[11] = postemergence, 125 g ai/ha, about 10 days, visual rating on 0 to 100 scale (0 no effect, 100 complete control)
[12] = Preemergence, 500 g ai/ha, 0 no effect, 100 complete control
[13] = preemergence, 125 g ai/ha, visual injury, approx. 10 days
[14] = 125 g ai/ha, scale 0 to 100, 0 no effect, 100 complete control
[15] = Postemergence, 31 g ai/ha, visually evaluated after 13 to 15 days
[16] = postemergence, 250 g ai/ha, scale 0 to 100 (0 no effect, 100 complete control)

Row | Compound | Nutsedge, Yellow plant response rating (nutsedge, yellow [1]; [3]) | Plant response rating, Nutsedge, Yellow (nutsedge, yellow [1]; 13 to 15 days) | Nutsedge, Yellow plant response rating (nutsedge, yellow [1]; [4]) | Kochia plant response rating (kochia; postemergence, 62 g ai/ha) | Plant response rating, Kochia (kochia; [5]) | Plant response rating, Ducksalad (ducksalad) | Johnsongrass plant response rating (johnsongrass; postemergence, 62 g ai/ha) | Plant response rating, Johnsongrass (johnsongrass; [5]) | Velvetleaf plant response rating (velvetleaf; [7]) | Plant response rating, Velvetleaf (velvetleaf; [8]) | Velvetleaf plant response rating (velvetleaf; [9]) | Plant response rating, Rice (rice) | Waterhemp plant response rating (waterhemp; [7]) | Plant response rating, Waterhemp (waterhemp; [8]) | Waterhemp plant response rating (waterhemp; [9]) | Nutsedge, Yellow plant response rating (nutsedge, yellow [2]; postemergence, 62 g ai/ha) | Plant response rating, Nutsedge, Yellow (nutsedge, yellow [2]; [5]) | Crabgrass, Large plant response rating (crabgrass, large; [10]) | Crabgrass, Large plant response rating (crabgrass, large; [11]) | Barnyardgrass plant response rating (barnyardgrass; [12]) | also measured
1 | CCCNC(=O)c1cc(CC)n(Cc2ccnc(C(F)(F)F)c2)n1 [Compound 75] | 55 | 75 | 85 | 60 | 90 | 85 | 10 | 10 | 75 | 100 | 100 | 35 | 100 | 100 | 100 | 5 | 10 | 100 | 100 | 100 | Plant response rating (scale of 0 to 100), Kochia (kochia; Postemergence, 16 g ai/ha): 30; Kochia plant response rating (kochia; Postemergence, 31 g ai/ha): 60; Plant response rating (scale of 0 to 100), Johnsongrass (johnsongrass; Postemergence, 16 g ai/ha): 10; Johnsongrass plant response rating (johnsongrass; Postemergence, 31 g ai/ha): 10; Plant response rating, Velvetleaf (velvetleaf; [6]): 60; Plant response rating, Waterhemp (waterhemp; [6]): 80; Plant response rating (scale of 0 to 100), Nutsedge, Yellow (nutsedge, yellow [2]; Postemergence, 16 g ai/ha): 0; Nutsedge, Yellow plant response rating (nutsedge, yellow [2]; Postemergence, 31 g ai/ha): 5; Barnyardgrass plant response rating (barnyardgrass; [13]): 100; Plant response rating (scale of 0 to 100), Soybean (soybean; Postemergence, 16 g ai/ha): 40; Soybean plant response rating (soybean): 75; Plant response rating, Soybean (soybean; [14]): 90
2 | CCc1cc(C(=O)NC2CC2)nn1Cc1ccnc(C(F)(F)F)c1 [Compound 76] | 40 | 70 | 90 | 90 | 90 | 85 | 0 | 25 | 75 | 85 | 100 | 20 | 98 | 100 | 100 | 5 | 5 | 100 | 80 | 100 | Plant response rating (scale of 0 to 100), Nutsedge, Yellow (nutsedge, yellow [1]; Preemergence, 250 g ai/ha): 98; Plant response rating (scale of 0 to 100 where 0 is no effect and 100 is complete control), Kochia (kochia; [15]): 75; Plant response rating, Kochia (kochia; [16]): 90; Plant response rating (scale of 0 to 100 where 0 is no effect and 100 is complete control), Johnsongrass (johnsongrass; [15]): 0; Plant response rating, Johnsongrass (johnsongrass; [16]): 25; Plant response rating (scale of 0 to 100), Velvetleaf (velvetleaf; Preemergence, 250 g ai/ha): 100; Plant response rating (scale of 0 to 100), Waterhemp (waterhemp; Preemergence, 250 g ai/ha): 100; Plant response rating (scale of 0 to 100 where 0 is no effect and 100 is complete control), Nutsedge, Yellow (nutsedge, yellow [2]; [15]): 5; Plant response rating, Nutsedge, Yellow (nutsedge, yellow [2]; [16]): 5; Barnyardgrass plant response rating (barnyardgrass; [13]): 80; Plant response rating (scale of 0 to 100 where 0 is no effect and 100 is complete control), Soybean (soybean; [15]): 65; Soybean plant response rating (soybean): 75; Plant response rating, Soybean (soybean; 250 g ai/ha, scale 0 to 100 (0 no effect, 100 complete control)): 98; Plant response rating, Soybean (soybean; [14]): 95
